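Cells were grown in 96-well plates and exposed to each compound for 48 hours at five concentrations; endpoints were interpolated linearly between bracketing concentrations, or set to the highest concentration if not reached. GI50 marks 50% less growth. The concentration for full growth arrest is given as TGI.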
Experiments:
Assay in all cases: NCI tumour cell line growth inhibition, 48 h
[1] = test system: T-47D breast
[2] = test system: UACC-62 melanoma
[3] = test system: UO-31 renal
[4] = test system: MOLT-4 leukemia
[5] = test system: IGROV1 ovarian
[6] = test system: PC-3 prostate
[7] = test system: LOX IMVI melanoma
[8] = test system: EKVX NSCLC
[9] = test system: SN12C renal
[10] = test system: MCF7 breast
[11] = test system: OVCAR-3 ovarian
[12] = test system: OVCAR-5 ovarian
[13] = test system: M14 melanoma
[14] = test system: CAKI-1 renal
[15] = test system: DU-145 prostate
[16] = test system: SK-OV-3 ovarian
[17] = test system: COLO 205 colon
[18] = test system: HCT-116 colon
[19] = test system: NCI-H23 lung
[20] = test system: HCC-2998 colon
[21] = test system: UACC-257 melanoma
[22] = test system: HT29 colon
[23] = test system: HOP-62 NSCLC
[24] = test system: 786-0 renal
[25] = test system: SW-620 colon
[26] = test system: HCT-15 colon
[27] = test system: A549 NSCLC
[28] = test system: MALME-3M melanoma
[29] = test system: RPMI-8226 leukemia

COc1cc(OC)c(/C=C/C(=O)c2c(OC)cccc2OC)c(OC)c1
TGI [1]: > 100000 nM | GI50 [2]: 362 nM | TGI [2]: 3060 nM | GI50 [3]: 899 nM | TGI [3]: > 100000 nM | GI50 [4]: 1170 nM | TGI [4]: > 100000 nM | GI50 [5]: 497 nM | GI50 [6]: 1170 nM | TGI [6]: > 100000 nM | GI50 [7]: 566 nM | TGI [7]: > 100000 nM | GI50 [8]: 4030 nM | TGI [8]: > 100000 nM | GI50 [9]: 1100 nM | TGI [9]: > 100000 nM | GI50 [10]: 392 nM | TGI [10]: > 100000 nM | GI50 [11]: 431 nM | GI50 [12]: 2170 nM | TGI [12]: > 100000 nM | GI50 [13]: 441 nM | TGI [13]: 2630 nM | GI50 [14]: 463 nM | TGI [14]: 97000 nM | GI50 [15]: 2010 nM | TGI [15]: > 29300 nM | GI50 [16]: 790 nM | TGI [16]: > 100000 nM | GI50 [17]: 619 nM | GI50 [18]: 394 nM | TGI [18]: > 100000 nM | GI50 [19]: 1460 nM | TGI [19]: > 27600 nM | GI50 [20]: 1150 nM | TGI [20]: 6910 nM | TGI [21]: > 100000 nM | GI50 [22]: 398 nM | TGI [22]: > 100000 nM | GI50 [23]: 742 nM | TGI [23]: > 100000 nM | GI50 [24]: 536 nM | TGI [24]: 3890 nM | GI50 [25]: 375 nM | TGI [25]: > 32600 nM | GI50 [26]: 482 nM | TGI [26]: > 100000 nM | GI50 [27]: 907 nM | TGI [27]: > 100000 nM | GI50 [28]: 450 nM | TGI [28]: > 100000 nM | GI50 [29]: 666 nM | TGI [29]: > 100000 nM
